Laboratory results as given in PMC10156683, “Male-selective effects of oxytocin agonism on alcohol intake: behavioral assessment in socially housed prairie voles and involvement of RAGE” (Neuropsychopharmacology, 2022).
Structures can show the parent of a compound that is named as a salt.

Experiments:
RAGE = assay: Involvement of RAGE in brain penetration of d5 OXT: pre-treatment with RAGE antagonist FPS ZM1; type: in vivo, prairie vole (Microtus ochrogaster)
From the text: Following confirmation of the presence of RAGE mRNA and protein in prairie vole brain using RT-PCR and immunohistochemistry as described in the Supplementary Material, we tested whether IN or IP administered OXT penetrates into the brain and whether the RAGE protein is involved in this transport. Adult female and male prairie voles were assigned to control or treatment groups. Animals in the treatment group received the high affinity, BBB-permeant RAGE antagonist FPS ZM1 and control animals received saline 30 min prior to administration of oxytocin-(leucine-5,5,5-d3, glycine-2,2-d2) trifluoroacetate salt (d5 OXT) in saline to all animals. […]
(§1) Alcohol and water intake were calculated for each animal as liquid consumed in grams (adjusted per density of 5% (v/v) ethanol and water) over body weight in kilograms. Alcohol and water drink size were determined by the volume of liquid consumed (ml) per consumption event. Consumptive visits were defined as channel entries during which a consumption event was recorded. […] Cumulative measures were analyzed at hourly intervals for 24 h post-treatment. […]
In 5 (1 control female, 2 control males, 1 pre-treated female and 1 pre-treated male) out of 57 cases levels were above or below 2 standard deviations from the mean and thus removed from analysis. In cases when no d5 OXT was detected, the concentration was entered as zero (17 total). […]

AVPR1a = settings: cited from earlier work
From the text: Determining the behavioral and molecular effects of OXT on alcohol consumption is important for translational application and optimization of treatment efficacy. […] Given OXT’s low brain-penetrance and potentially non-specific effects on the related vasopressin receptor AVPR1a, development of an OXTR receptor agonist with a more desirable pharmacokinetic profile could increase the tran ...

in vivo = assay: in vivo; design: species or system prairie vole (Microtus ochrogaster); settings: for tissue level at time at 10 min: female
From the text: Following confirmation of the presence of RAGE mRNA and protein in prairie vole brain using RT-PCR and immunohistochemistry as described in the Supplementary Material, we tested whether IN or IP administered OXT penetrates into the brain and whether the RAGE protein is involved in this transport. Adult female and male prairie voles were assigned to control or treatment groups. Animals in the treatment group received the high affinity, BBB-permeant RAGE antagonist FPS ZM1 and control animals received saline 30 min prior to administration of oxytocin-(leucine-5,5,5-d3, glycine-2,2-d2) trifluoroacetate salt (d5 OXT) in saline to all animals. After 10 min, animals were deeply anaesthetized under 4% isoflurane and perfused with heparinized saline. […] Brains were extracted and snap-frozen in isopentane, then stored at −80 °C until prepared for analysis via LC-MS/MS (Supplementary Fig. S2).
OXT acetate salt (Bachem, Torrence, CA, USA) was dissolved in normal saline to doses of 5.0 mg/kg and 10.0 mg/kg (25 µl, IN). LIT-001 was synthesized in the laboratory of Dr. Marcel Hibert. […]
as §1
Adult female and male prairie voles (75- 207d) were assigned to control (n =28; females = 14) or treatment (n = 29; females = 15) groups pseudo-randomly to ensure genetic diversity across groups. Whole brain tissue samples (~650 mg) were homogenized, subjected to protein precipitation and solid-phase extraction, and analyzed for concentrations (pg/mg) of exogenous oxytocin-(leucine-5,5,5-d3, glycine-2,2-d2) trifluoroacetate salt (d5 OXT) using a Shimadzu Nexera-LCMS-8060 (Shimadzu, Kyoto, Japan) liquid chromatograph-triple quadrupole mass spectrometer. […]

[1] = cited from earlier work
From the text: Determining the behavioral and molecular effects of OXT on alcohol consumption is important for translational application and optimization of treatment efficacy. […] While a statisti ...

prairie voles [2] = assay: Continuous-access two-bottle choice (CA-2BC) alcohol drinking in socially housed prairie voles, HM2 cages, mixed-cage design; type: in vivo, prairie vole (Microtus ochrogaster)
Protocol: For experiments examining the effects of pharmacologically targeting the OXT system on alcohol (and water) consumption, adult female and male prairie voles were given ad libitum access to alcohol in a CA-2BC design for 6 days. […] Fluid consumption was measured before and after treatment (IN OXT or IP LIT-001, or vehicle) using the Herdsman-2 (HM2; MBrose Faaborg, Denmark) cage system. The HM2 system is designed to allow socially housed animals unrestrained access to and interaction with other animals in the cage, while accounting for precise, individualized measures of fluid intake through the combined use of balances and radiofrequency identification (RFID) implants. This cage system has been previously utilized to assess potential pharmacotherapies for AUD in rodents. Further details are provided in the Supplementary Material (Supplementary Fig. S1). Consistent with previous studies, a mixed-cage design (treated and control animals in the same cage) was used.
OXT acetate salt (Bachem, Torrence, CA, USA) was dissolved in normal saline to doses of 5.0 mg/kg and 10.0 mg/kg (25 µl, IN). LIT-001 was synthesized in the laboratory of Dr. Marcel Hibert. It was dissolved in 5% dimethyl sulfoxide in saline and administered at a dose of 10 mg/kg (IP). FPS ZM1 (1 mg/kg, IP; Tocris, Minneapolis, MN, USA) and d5 OXT (3 µg/25 µl, IN or 12 µg/0.1 ml, IP; Sigma-Aldrich, St. Louis, MO, USA) were dissolved in saline. The d5 OXT dose was based on previous assessments of OXT penetrance.
Alcohol and water intake were calculated for each animal as liquid consumed in grams (adjusted per density of 5% (v/v) ethanol and water) over body weight in kilograms. Alcohol and water drink size were determined by the volume of liquid consumed (ml) per consumption event. Consumptive visits were defined as channel entries during which a consumption event was recorded. […] Cumulative measures were analyzed at hourly intervals for 24 h post-treatment. Concentrations of d5 OXT (pg/mg of tissue) were obtained through LC-MS/MS analysis on a Shimadzu Nexera-LCMS-8060 instrument using a previously established method. Data analysis was performed in IBM SPSS Statistics 27 and visualization was performed in Prism 9.3.1. The distribution of many of these measures was not normal. Therefore, non-parametric statistics were applied, including Kruskal–Wallis test and post hoc analyses with Mann–Whitney U-test. While Results below only include p values, detailed statistical analyses are presented in Supplementary Material Table S1.
The Herdsman-2 (HM2) system was used in the experiments measuring alcohol consumption. The HM2 cage system consists of Techniplast 1500U Eurostandard type IV S (48 x 37.5 x 21cm) rodent housing cages equipped with two (11cm) channels (front and back) on one side and stairs specially designed to accommodate prairie voles. Each channel leads to a bottle (one water, one 5% ethanol in water, v/v) below which is a precision balance with a catch tray for spillage- which is automatically deducted from consumption calculations. Breakage of the photobeam at the entrance of the channel triggers the RFID reader to register the animal. A consumption event is initiated when the animal touches the drinking spout and a change of weight of at least 0.02 g is detected; the starting weight is saved and ending weight is registered only after the system receives a stable reading for 5 s. A consumption event is ended 30s after the last touch of the drinking spout, regardless of whether the animal remains in the channel. The system collects a number of measures, including: weight of liquid consumed, number of channel entries and consumptive vs. non-nutritive visits (whether liquid is consumed or not). […]

prairie voles [3] = settings: both sexes, previous prairie vole study; cited from earlier work
From the text: Importantly, RAGE immunoreactivity was detected in the choroid plexus, hypothalamus and hippocampus, confirming expression in possible locations of central penetration. […] Studies in mice noted that the IN route of administration can result in hi ...

Compound: O=C(c1ccc(Cl)cc1)N(Cc1ccccc1)C1CCCCC1 [FPS ZM1]
- Effect of antagonist pre-treatment on brain d5 OXT levels after IP d5 OXT (in words) (RAGE; female or male prairie voles, FPS ZM1 1 mg/kg IP 30 min before IP d5 OXT, control vs antagonist pre-treated, ps > 0.21): No significant differences
- Effect of antagonist pre-treatment on brain d5 OXT levels after IN d5 OXT (in words) (RAGE; male prairie voles, FPS ZM1 1 mg/kg IP 30 min before IN d5 OXT, vs vehicle pre-treated controls, p = 0.02): significantly decreased

Compound: Cc1cc(C(=O)N2Cc3cnn(C)c3Nc3ccccc32)ccc1CNC(=O)N1CCN(Cc2cc(O)cc(O)c2)CC1 [WAY-267646]
- Affinity for the AVPR1a (in words) (AVPR1a): moderate affinity

Compound: CC[C@H](C)[C@@H]1NC(=O)[C@H](Cc2ccc(O)cc2)NC(=O)[C@@H](N)CSSC[C@@H](C(=O)N2CCC[C@H]2C(=O)N[C@@H](CC(C)C)C(=O)NCC(N)=O)NC(=O)[C@H](CC(N)=O)NC(=O)[C@H](CCC(N)=O)NC1=O [d5 OXT, oxytocin-(leucine-5,5,5-d3, glycine-2,2-d2) trifluoroacetate salt]
- tissue level at time at 10 min (in vivo; 3 ug): 0.006 ng/g
- tissue level at time at 10 min (in vivo; ip, 12 ug): 0.05 ng/g
- Presence of d5 OXT in brain (in words) (in vivo; ip): detected

Compound: Oxytocin [OXT]
- Bioavailability (in words) [1]: low bioavailability
- Metabolic stability (in words) [1]: metabolically unstable
- Oral availability (in words) [1]: not orally available
- Half-life ([1]; estimated): tens of minutes
- Water intake or drink size 3 h post-treatment (in words) (prairie voles [2]; IN OXT 5 and 10 mg/kg, 3 h post-treatment): No effect
- Alcohol or water consumptive visits or non-nutritive visits (in words) (prairie voles [2]; IN OXT 5 and 10 mg/kg, females and males, any time point, p > 0.94): No significant differences
- Alcohol intake at 2 h post-treatment (in words) (prairie voles [2]; both doses of IN OXT (5 and 10 mg/kg), 2 h post-treatment, Kruskal-Wallis p = 0.02): decreased alcohol intake
- Effect on alcohol consumption in females (in words) (prairie voles [2]; female prairie voles, IN OXT 5 and 10 mg/kg): without affecting alcohol consumption
- Alcohol intake vs control counterparts (in words) (prairie voles [2]; male prairie voles, 5 mg/kg and 10 mg/kg IN OXT, 3 h post-treatment, Mann-Whitney p = 0.01 and p = 0.02): lower alcohol intake
- Alcohol drink size vs control counterparts (in words) (prairie voles [2]; male prairie voles, 5 mg/kg and 10 mg/kg IN OXT, 3 h post-treatment, p = 0.01 and p = 0.02): smaller drink sizes
- Water intake at 2 h post-treatment (in words) (prairie voles [2]; male prairie voles, 10 mg/kg IN OXT, 2 h post-treatment, p = 0.04): increased water intake
- Alcohol and water intake after IP OXT (in words) (prairie voles [3]): decreased alcohol and water intake

Compound: TC-OT-39
- Affinity for the AVPR1a (in words) (AVPR1a): moderate affinity
